# According to patent US8198405B2, “Stabilized alpha helical peptides and uses thereof” (Dana-Farber Cancer Institute, Inc., priority 2003, dated 2012):
# Where a SMILES comes first, the peptide text is derived from it. [ ]: non-standard residue; d: D form. The star is where a group is joined. FITC = O=C1OC2(c3ccc(O)cc3Oc3cc(O)ccc32)c2ccc(NC(=S)*)cc21; Nle = CCCC[C@H](N)C(=O)O; βAla = NCCC(=O)O
# T1: trypsin (Bos taurus, UniProt P00760)
# T1 sequence (P00760 24-246): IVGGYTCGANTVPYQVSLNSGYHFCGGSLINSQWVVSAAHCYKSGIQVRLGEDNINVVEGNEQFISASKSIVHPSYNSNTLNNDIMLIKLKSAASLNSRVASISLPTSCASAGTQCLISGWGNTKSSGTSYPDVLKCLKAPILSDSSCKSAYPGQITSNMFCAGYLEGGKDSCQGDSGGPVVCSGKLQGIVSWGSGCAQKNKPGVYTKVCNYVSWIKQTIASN
# How the values were obtained:
# [1] = 10 mg/kg FITC-conjugated peptide
# Description: Levels of intact FITC-compound in 25 μL of fresh serum were then measured.
# [2] = test system: Jurkat T-cell leukemia cells; assay: Confocal microscopy, intracellular localization; format: cell-based; conditions: fixed cells
# Description: Confocal microscopy experiments were employed in order to determine the intracellular localization of SAHB3BIDA. Jurkat T-cell leukemia cells were incubated with FITC-labeled compounds as described above or with serum replacement at 4 hours followed by additional 16 hours incubation at 37° C., and after washing twice with PBS, were cytospun at 600 RPM for 5 minutes onto superfrost plus glass slides (Fisher). Cells were then fixed in 4% paraformaldehyde, washed with PBS, incubated with TO-PRO-3 iodide (100 nM) (Molecular Probes) to counterstain nuclei, treated with Vectashield mounting medium (Vector), and then imaged by confocal microscopy (BioRad 1024). For double labeling experiments, fixed cells were additionally incubated with primary antibody to TOM20, and rhodamine-conjugated secondary antibody prior to TOPRO-3 counterstaining. […] Treated Jurkats were washed twice and then resuspended in PBS and wet mount preparations analyzed with a BioRad 1024 (Beth Israel/Deaconess Center for Advanced Microscopy) or Zeiss LSM510 laser scanning confocal microscope (Children's Hospital Boston Imaging Core).
# [3] = test system: Jurkat T-cell leukemia cells; assay: Cellular uptake of FITC-peptides by FACS
# Description: BID helix 6, a cell permeable and membrane perturbing peptide, was used as a positive control for FITC-labeling in this experiment.
# trypsin = biological target: T1, trypsin; assay: In vitro trypsin proteolysis (trypsin agarose); format: in vitro ADME; conditions: first order rate constant, triplicate
# Description: The amide bond of the peptide backbone is susceptible to hydrolysis by proteases, thereby rendering peptidic compounds vulnerable to rapid degradation in vivo. Peptide helix formation, however, buries the amide backbone and therefore shields it from proteolytic cleavage. […] SAHB3BIDA and unmodified peptide were incubated with trypsin agarose and the reactions quenched at various time points by centrifugation and subsequent HPLC injection to quantitate the residual substrate by ultraviolet absorption at 280 nm. […] Reactions were quenched by tabletop centrifugation at high speed; remaining substrate in the isolated supernatant was quantified by HPLC-based peak detection at 220 nm.
# GST-BCL-2 = biological target: T2, GST-BCL-2 (Homo sapiens, UniProt P10415); assay: Fluorescence polarization competitive binding (displacement of FITC-BID BH3)
# T2 construct: containing the plasmid encoding C-terminal deleted GST-BCL-2; made in house; host or cells: Escherichia coli BL21 (DE3)
# T2 sequence (P10415 1-218 limits assumed): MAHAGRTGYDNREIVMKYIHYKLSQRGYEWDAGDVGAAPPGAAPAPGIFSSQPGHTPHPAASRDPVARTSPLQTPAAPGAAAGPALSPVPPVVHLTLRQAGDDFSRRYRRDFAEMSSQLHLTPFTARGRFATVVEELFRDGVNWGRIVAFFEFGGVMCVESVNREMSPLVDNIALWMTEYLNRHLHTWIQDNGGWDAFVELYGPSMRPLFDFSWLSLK
# BCL-2 = biological target: T3, BCL-2 (Homo sapiens, UniProt P10415); assay: Fluorescence polarization direct binding assay
# T3 construct: containing the plasmid encoding C-terminal deleted GST-BCL-2; made in house; host or cells: Escherichia coli BL21 (DE3)
# T3 sequence (P10415 1-218 limits assumed): as above
# BAX = biological target: T4, BAX (Homo sapiens, UniProt Q07812); assay: Fluorescence polarization direct binding assay; conditions: full-length BAX
# T4 construct: Full-length BAX protein was prepared as previously described (Suzuki et al, Cell, 103:645); made in house
# T4 sequence (Q07812 whole entry): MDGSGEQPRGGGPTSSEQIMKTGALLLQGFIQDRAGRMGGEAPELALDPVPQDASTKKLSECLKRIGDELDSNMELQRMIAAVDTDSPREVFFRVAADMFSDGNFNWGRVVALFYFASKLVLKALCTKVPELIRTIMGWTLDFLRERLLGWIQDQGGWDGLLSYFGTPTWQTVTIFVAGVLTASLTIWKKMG
# BCL-XL = assay: 15N/1H HSQC NMR of 15N-labeled BCL-XL; format: binding; conditions: 1:1 complex, 0.1 mM
# Description: Briefly, Escherichia coli BL21 (DE3) containing the plasmid encoding C-terminal deleted BCL-XL were cultured in M9-minimal medium containing ^15NH4Cl (Cambridge Isotope Laboratories) to generate uniformly ^15N-labeled protein. Recombinant proteins were isolated from bacteria. […] Two dimensional ^15N/^1H heteronuclear single-quantum spectra were recorded for the two complexes and analyzed for changes in resonance upon ligand binding.
# [4] = test system: purified mouse liver mitochondria; assay: Cytochrome c release assay (ELISA), wild-type mitochondria; format: biochemical
# Description: (§1) In order to assess the biological activity of SAHB3BID compounds in vitro, cytochrome c release assays were performed using purified mouse liver mitochondria. Mitochondria (0.5 mg/mL) were incubated for 40 minutes with 1 μM and 100 nM of SAHB3BID compounds and then supernatants and mitochondrial fractions isolated and subjected to cytochrome c ELISA assay. Background cytochrome c release (10-15%) was subtracted from total release for each sample, and the percent actual cytochrome c release was determined (FIG. 12). […] In each case, except for the double cross-linked SAHB3BIDE (which may lack critical amino acids for biological activity or, in this case, be overly constrained by the dual cross-links), there is approximately a doubling of cytochrome c release in response to 1 μM SAHB3BID compounds compared to the unmodified peptide (FIG. 12a). […] BID mutants with defective BH3 domains can promote BAK-independent cytochrome c mobilization (Scorrano et al, Dev Cell, 2:55), and the highly hydrophobic BID helix 6 has been implicated in this activity (L. Scorrano, S. J. Korsmeyer, unpublished results).
# Similar to the above experiment, mouse liver mitochondria from wild-type and Bak−/− mice were exposed to the compounds at various concentrations and assayed for cytochrome c release at 10 and 40 minute intervals. […] Thus, SAHB3BIDA and B display a 10-25 fold enhancement in cytochrome c release activity at the 40 minute time point.
# [5] = test system: mouse liver mitochondria isolated from Bak-/- mice; assay: Cytochrome c release assay, Bak-/- mitochondria (BAK-independent release); format: biochemical; conditions: 1 μM, 40 minutes
# Description: as §1
# Similar to the above experiment, mouse liver mitochondria from wild-type and Bak−/− mice were exposed to the compounds at various concentrations and assayed for cytochrome c release at 10 and 40 minute intervals. […]
# [6] = test system: Jurkat cells engineered to overexpress BCL-2; assay: Apoptosis by annexin V flow cytometry; format: cell-based
# Description: Indeed, the pro-apoptotic effect of 10 uM SAHB3BIDA and B on “wild-type” Jurkats was abolished in the BCL-2 overexpressing cells. […] The observed pro-apoptotic effects are selectively abolished by gly to glu mutation of SAHB3BIDA and cellular overexpression of BCL-2, findings which underscore that SAHB3BID compounds function via the defined mitochondrial apoptosis pathway.
# [7] = test system: REH, MV4; 11, and SEMK2 cell lines; assay: Apoptosis induction assays; format: cell-based
# SEMK2-M1 leukemia cells = assay: SEMK2 leukemia in vivo, total body luminescence
molecule,measurement,setting,value
"CCCC[C@H](NC(=O)[C@H](CO)NC(=O)[C@H](CC(=O)O)NC(=O)CNC(=O)[C@@H](NC(=O)[C@H](CCC(N)=O)NC(=O)[C@H](C)NC(=O)[C@H](CC(C)C)NC(=O)[C@H](Cc1c[nH]cn1)NC(=O)[C@H](CCCNC(=N)N)NC(=O)[C@H](C)NC(=O)[C@@H](NC(=O)[C@H](CC(N)=O)NC(=O)[C@H](CCCNC(=N)N)NC(=O)[C@@H](NC(=O)[C@@H](NC(=O)[C@H](CC(=O)O)NC(=O)[C@@H](N)CCC(=O)O)[C@@H](C)CC)[C@@H](C)CC)[C@@H](C)CC)C(C)C)C(=O)N[C@@H](CC(=O)O)C(=O)N[C@@H](CCCNC(=N)N)C(=O)N[C@@H](CO)C(=O)N[C@H](C(=O)N[C@@H](Cc1c[nH]c2ccccc12)C(N)=O)[C@@H](C)CC [BID BH3, reference compound] (H-EDIIRNIARHLAQVGDS[Nle]DRSIW-NH2)",percent detectable in serum,[1]; one hour after injection,12%
CCCC[C@H](NC(=O)[C@H](CO)NC(=O)[C@H](CC(=O)O)NC(=O)CNC(=O)[C@@H](NC(=O)[C@H](CCC(N)=O)NC(=O)[C@H](C)NC(=O)[C@H](CC(C)C)NC(=O)[C@H](Cc1c[nH]cn1)NC(=O)[C@H](CCCNC(=N)N)NC(=O)[C@H](C)NC(=O)[C@@H](NC(=O)[C@H](CC(N)=O)NC(=O)[C@H](CCCNC(=N)N)NC(=O)[C@@H](NC(=O)[C@@H](NC(=O)[C@H](CC(=O)O)NC(=O)[C@H](CCC(=O)O)NC(=O)CCNC(=S)Nc1ccc2c(c1)C(=O)OC21c2ccc(O)cc2Oc2cc(O)ccc21)[C@@H](C)CC)[C@@H](C)CC)[C@@H](C)CC)C(C)C)C(=O)N[C@@H](CC(=O)O)C(=O)N[C@@H](CCCNC(=N)N)C(=O)N[C@@H](CO)C(=O)N[C@H](C(=O)N[C@@H](Cc1c[nH]c2ccccc12)C(N)=O)[C@@H](C)CC [FITC-BID BH3] ({FITC-βAla}-EDIIRNIARHLAQVGDS[Nle]DRSIW-NH2),intracellular distribution of fluorescence,[2],no cellular labeling
same,FITC labeling of cells at 4° C. and 37° C.,[3],did not label the cells at either temperature
same,FITC labeling with or without sodium azide and 2-deoxyglucose,[3],no labeling for either condition
CCCC[C@H](NC(=O)[C@]1(C)CCCC=CCCC[C@](C)(NC(=O)[C@H](C)NC(=O)[C@H](CC(C)C)NC(=O)[C@H](Cc2c[nH]cn2)NC(=O)[C@H](CCCNC(=N)N)NC(=O)[C@H](C)NC(=O)[C@@H](NC(=O)[C@H](CC(N)=O)NC(=O)[C@H](CCCNC(=N)N)NC(=O)[C@@H](NC(=O)[C@@H](NC(=O)[C@H](CC(=O)O)NC(=O)[C@H](CCC(=O)O)NC(C)=O)[C@@H](C)CC)[C@@H](C)CC)[C@@H](C)CC)C(=O)N[C@@H](C(C)C)C(=O)NCC(=O)N[C@@H](CC(=O)O)C(=O)N1)C(=O)N[C@@H](CC(=O)O)C(=O)N[C@@H](CCCNC(=N)N)C(=O)N[C@@H](CO)C(=O)N[C@H](C(=O)N[C@@H](Cc1c[nH]c2ccccc12)C(N)=O)[C@@H](C)CC [SAHB3BIDA],enhancement in trypsin resistance compared to the unmodified peptide,trypsin,3.5 fold
same,increase in displacement potency compared to unmodified BID BH3 peptide,GST-BCL-2,more than 13 fold
same,"GST-BCL2 binding, in words",GST-BCL-2; competition with FITC-labeled unmodified BID BH3,highest affinity binding
same,IC50,GST-BCL-2; read-out: IC50 for displacement of prebound FITC-BID BH3 from BCL-2,62 nM
same,enhancement in BCL-2 binding affinity compared to unmodified BID BH3 peptide,BCL-2,6 fold
same,Kd,"BCL-2; fluorescinated compounds 25 nM, GST-BCL2 25 nM-1000 nM (FIG. 11d)",38.8 nM
same,"BAX binding, in words",BAX,measurable binding
same,"BCL-XL binding site, in words",BCL-XL,binds to the defined hydrophobic pocket of BCL-XL
same,"cytochrome c release at ten-fold lower dosing, in words","[4]; 100 nM, 40 minutes",retain selective BAK-dependent cytochrome c release activity
same,"cytochrome c release at 10 minutes, in words",[4]; 10 minutes,significant cytochrome c release
same,EC50,[4]; 40 minutes,310 nM
same,"BAK-independent cytochrome c release, in words",[5],BAK-independent cytochrome c release is observed
same,pro-apoptotic effect in BCL-2 overexpressing cells,[6]; 10 uM,abolished
same,overcoming BCL-2 protection by dose escalation,[6]; dose response (FIG. 24),can be overcome by dose escalation
same,"apoptosis induction, in words",[7],specific apoptosis induction
same,percent of the input still measurable in serum,[1]; 22 hours post-injection,13%
same,IC50,Jurkat,2200 nM
same,IC50,REH,10200 nM
same,IC50,MV4;11,4700 nM
same,IC50,SEMK2,1600 nM
same,IC50,RS4;11,2700 nM
same,tumor burden (total body luminescence),"SEMK2-M1 leukemia cells; 10 mg/kg intravenously on days 1, 2, 3, 5, 6, measured days 4 and 7",leukemic suppression
same,tumor burden (total body luminescence),"SEMK2-M1 leukemia cells; 10 mg/kg or 5 mg/kg intravenously on days 1, 2, 3, 6, 7, measured days 4 and 8",dose-dependent manner
"myristolated BID protein: maximally activated myristolated BID protein (protein, UniProt P55957 1-195, looked up, myristoylated) BH3-interacting domain death …: MDCEVNNGSSLRDECITNLLVFGFLQSCSDNSFRRELDALGHELPVLAPQWEGYDELQTDGNRSSHSRLGRIEADSESQEDIIRNIARHLAQVGDSMDRSIPPGLVNGLALQLRNTSRSEEDRNRDLATALEQLLQAYPRDMEKEKTMLVLALLLAKKVASHTPSLLRDVFHTTVNFINQNLRTYVRSLARNGMD",cytochrome c released,[4]; 30 nM,approximately 65%
